The subject of one assay is E. coli endotoxin. In words: Detection of endotoxin with Limulus Amebocyte Lysate (LAL) and fluorogenic substrate. Particulars: Ex/Em=490/525 nm. The class given is biochemical. The method, then: FIG. 5. Illustrates the detection of E. coli endotoxin with an exemplary compound. E. coli endotoxin is measured in a black/solid bottom 96-well plate with Compound 7. The fluorescence intensity is recorded using a Gemini microplate reader at Ex/Em=490/525 nm, cutoff=515 nm. As low as 0.001 EU/mL of E. coli endotoxin can be detected.
Endotoxin is the major component of the outer membrane of Gram-negative bacteria. endotoxin is a potent stimulator of the vertebrate innate immune system and can cause fever, septic shock and eventually death. It is recognized as a biomarker for the detection of bacterial pathogen invasion and is responsible for the development of inflammatory response and endotoxic shock in extreme cases. […] The LAL enzymatic cascade can be activated by endotoxin at pH 6.0 to 7.5, and the amount of activated enzyme present can be measured by its ability to cleave the fluorogenic and/or chromogenic substrate. […] The endotoxin activity is proportional to the fluorescence intensity of rhodamine 110 resulting from the hydrolysis of Compound 7. The concentration of endotoxin in a sample can be calculated from a standard curve. […] The fluorescence intensities of the test sample solutions are recorded with a fluorescence microplate reader at Ex/Em=490/525 nm within 10-30 minutes.

For a further assay, the system named is Caspase 3/7. Nature of the assay: Detection of apoptosis / caspase 3/7 activities in Jurkat cells, whole cell assay. The format is cell-based. To be noted: staurosporine 0.5 μg/ml 2 hours, 50 μM substrate 2 hours at 37° C., Ex/Em=540/620 nm. The method, then:
FIG. 3. Illustrates the detection of Caspase 3/7 activities in Jurkat cells with Compound 4. Jurkat cells are seeded on the same day at 200,000 cells/90 μL/well in a Costar black wall/clear bottom 96-well plate. The cells are treated with or without 1 μM of staurosporine for 5 hours. The caspase 3/7 working solution (100 μL/well) are added and incubated at room temperature for 1 hour. The fluorescence intensity is measured at Ex/Em=540/620 nm (Cutoff=610 nm) with FlexStation fluorescence microplate reader.
Jurkat T leukemia cells are grown in RPMI 1640 media (Life Technologies, Inc.) and 10% FCS (Sigma Chemical Company) in a 5% CO2-95% humidity incubator at 37° C., and maintained at a cell density between 4 and 8×10^5 cells/ml. Cells were harvested at 200×g and resuspended at 1×10^6 cells/ml into RPMI 1640 media containing 10% FCS and 1 ml each were dispensed in 2-wells of a 6-well plate. The apoptosis inducer staurosporine is added at 0.5 μg/ml concentration and the plate is incubated for 2 hours at 37° C. in a 5% CO2-95% humidity incubator. Cells are incubated with 50 μM of substrate Compound 4 for 2 hours at 37° C. in serum-free RPMI medium. The samples are analyzed with a fluorescence microplate reader (top or bottom read mode) at Ex/Em=540/620 nm (Cutoff=610 nm).

Starred links: 1 amine or outer side, 2 acyl side, 3 side chain; linkers in the order of their positions; H or OH if unused. Positions of bridges follow the written chain, without caps; N, C: chain ends. Residues, ends and D or L forms follow the SMILES beside them. Chains are numbered I, II in the order given. Rhodamine110 = O=C1OC2(c3ccc(N[*:1])cc3Oc3cc(N[*:2])ccc32)c2ccccc21

Regarding `CCC(C)C(NC(C)=O)C(=O)NC(CCC(=O)O)C(=O)NC(C)C(=O)NC(CCCNC(=N)N)C(=O)Nc1ccc2c(c1)Oc1cc(NC(=O)C(CCCNC(=N)N)NC(=O)C(C)NC(=O)C(CCC(=O)O)NC(=O)C(NC(C)=O)C(C)CC)ccc1C21OC(=O)c2ccccc21` (stereo not drawn) [Compound 7] (I: Ac-IEAR / II: Ac-IEAR; linker I:C-II:C via Rhodamine110; configuration not given here), the “lowest detectable E. coli endotoxin” value in the assay with E. coli endotoxin (96-well plate, cutoff=515 nm) stood at 0.001 EU/mL. Also, the “fluorescence of hydrolyzed product (rhodamine 110) after hydrolysis by LAL in the presence of endotoxins” value with E. coli endotoxin (LAL 100 U, 10 uM substrate) is recorded as “strong green fluorescence”. With Compound 4 (DVED), the “cleavage of the caspase-3/7 substrate on induction of apoptosis” value with Caspase 3/7 is reported as “leads to cleavage”.

The record behind these values is patent US12663415B2, “Chromogenic and fluorogenic compounds and their use for biological detection” (AAT Bioquest, Inc., priority 2022, dated 2026).
